Results reported in patent US12624034B2, “Non-covalent modifiers of AKT1 and uses thereof” (Terremoto Biosciences, Inc., priority 2023, dated 2026).
Read-outs that look alike come from different tables or passages of the source.

Tests used:
[1] = target: T1, AKT1 E17K (Homo sapiens, UniProt P31749, E17K); assay: Live cell AKT1 E17K target engagement by NanoBRET competitive probe displacement in HEK293 cells; type: binding; conditions: 2 h at 37° C.
T1 construct: expressed in transfected cells; host or cells: HEK293
Protocol: Determining live cell AKT1 E17K, AKT1 WT, and AKT2 target engagement by NanoBRET competitive probe displacement. Live cell target engagement assays were performed as described (Vasta, J. D. et al. Cell Chem Biol 2018, 25(11), 206-214). Briefly, HEK293 cells were transfected with plasmids encoding kinase-NanoLuciferase fusion proteins overnight. Cells were then treated with serial dilutions of compound and an ˜EC50 concentration of fluorescently-tagged ATP-competitive tracer (Promega). After incubation for 2 h at 37° C., luciferase substrate and extracellular luciferase inhibitor were added to all wells, and luminescent intensity at 460 nm and 600 nm were measured on a multimode plate-reader. The ratio of E600/E460 was calculated to give the tracer engagement signal (BRET). IC50 values were calculated by fitting BRET values to a log(inhibitor) vs. response Hill equation.

[2] = test system: LAPC4 prostate cancer cells, which express the AKT1 E17K allele; assay: Antiproliferative effects in LAPC4 cells (CellTiter Glo, 72 h); type: cell-based; conditions: read-out: LAPC4 proliferation IC50
Protocol: Antiproliferative Effects in LAPC4 Cells.
LAPC4 prostate cancer cells (Klein, K. A. et al. Nat Med 1997, 3, 402-408), which express the AKT1 E17K allele, were grown in IMDM media (Hyclone) supplemented with 12% FBS+1% P/S. To assess compound effects on growth, 1,000 cells/well were seeded in 384 well assay plates, incubated with compound dilutions dissolved in DMSO. After 72 h, intracellular ATP content was assessed with CellTiter Glo reagent (Promega) according to the manufacturer's instructions. IC50 values were calculated by fitting luminescence values to a log(inhibitor) vs. response Hill equation.

[3] = target: T2, AKT1 WT (Homo sapiens, UniProt P31749); assay: Live cell AKT1 WT target engagement by NanoBRET competitive probe displacement in HEK293 cells; type: binding; conditions: 2 h at 37° C., read-out: AKT1 WT IC50
T2 construct: expressed in transfected cells; host or cells: HEK293

[4] = target: T3, AKT2 (Homo sapiens, UniProt P31751); assay: Live cell AKT2 target engagement by NanoBRET competitive probe displacement in HEK293 cells; type: binding; conditions: 2 h at 37° C., read-out: AKT2 IC50
T3 construct: expressed in transfected cells; host or cells: HEK293

[5] = NanoBRET live cell target engagement, HEK293 cells
[6] = NanoBRET competitive probe displacement, live HEK293 cells

T3 sequence (P31751 whole entry): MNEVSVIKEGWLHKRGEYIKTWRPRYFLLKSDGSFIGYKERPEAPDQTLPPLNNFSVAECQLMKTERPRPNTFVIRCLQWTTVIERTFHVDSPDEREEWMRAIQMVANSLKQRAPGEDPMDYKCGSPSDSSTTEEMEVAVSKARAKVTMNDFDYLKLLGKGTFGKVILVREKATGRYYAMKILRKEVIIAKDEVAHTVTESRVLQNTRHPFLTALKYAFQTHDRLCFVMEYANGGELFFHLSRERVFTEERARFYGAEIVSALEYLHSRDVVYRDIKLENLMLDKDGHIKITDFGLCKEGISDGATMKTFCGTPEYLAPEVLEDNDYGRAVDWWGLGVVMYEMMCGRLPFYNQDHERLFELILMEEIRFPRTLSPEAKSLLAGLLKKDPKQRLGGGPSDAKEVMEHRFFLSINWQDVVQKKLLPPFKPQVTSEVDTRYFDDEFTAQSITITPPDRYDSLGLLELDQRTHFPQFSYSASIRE
T2 sequence (P31749 whole entry): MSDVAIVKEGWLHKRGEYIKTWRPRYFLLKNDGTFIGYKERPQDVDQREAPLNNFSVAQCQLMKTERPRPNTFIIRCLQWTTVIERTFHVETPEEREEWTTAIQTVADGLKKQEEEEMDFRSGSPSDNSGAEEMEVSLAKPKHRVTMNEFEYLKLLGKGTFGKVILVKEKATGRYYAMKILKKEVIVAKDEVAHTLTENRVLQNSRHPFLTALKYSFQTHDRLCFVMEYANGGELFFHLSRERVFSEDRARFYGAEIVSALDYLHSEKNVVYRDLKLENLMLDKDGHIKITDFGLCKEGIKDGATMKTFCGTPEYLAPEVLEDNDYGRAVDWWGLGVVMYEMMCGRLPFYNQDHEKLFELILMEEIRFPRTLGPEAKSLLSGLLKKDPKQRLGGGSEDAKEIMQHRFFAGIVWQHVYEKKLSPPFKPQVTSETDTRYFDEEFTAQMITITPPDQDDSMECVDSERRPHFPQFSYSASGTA
T1 sequence (P31749 whole entry E17K): as the sequence (P31749 whole entry) above, with E17K counted along it

| IC50 [1, 5] | IC50 ([2]; Homo sapiens, LAPC4, 72 h) | IC50 [3, 5] | IC50 [4, 5] | IC50 [2] | IC50 [1, 6] | IC50 [3, 6] | IC50 [4, 6] | Compound |
| --- | --- | --- | --- | --- | --- | --- | --- | --- |
| > 1000 nM | > 10000 nM | 593 nM | 5000 nM | – | – | – | – | CN1CCC(N[C@H]2CCc3cc(-n4c(-c5cccnc5N)nc5ccc(-n6cccn6)nc54)ccc32)CC1 [Compound 274] |
| > 1000 nM | 9360 nM | 45.4 nM | 2400 nM | – | – | – | – | Nc1ncccc1-c1nc2ccc(-n3cccn3)nc2n1-c1ccc2c(c1)CC[C@@H]2NC1CCN(C(=O)C2CC2)CC1 [Compound 279] |
| – | 5270 nM | – | – | – | > 1000 nM | 24.3 nM | 1750 nM | COc1ccn(-c2ccc3nc(-c4cccnc4N)n(-c4ccc5c(c4)CC[C@@H]5NC4CCN(C(=O)C5CC5)CC4)c3n2)n1 [Compound 440] |
| 15 nM | 331 nM | 6.94 nM | 17 nM | – | – | – | – | Nc1ncccc1-c1nc2ccc(-n3cccn3)nc2n1-c1ccc2c(c1)CC[C@@H]2NC(=O)c1ccc(C2CC2)nc1 [Compound 46, N-[(1S)-5-[2-(2-aminopyridin-3-yl)-5-(pyrazol-1-yl)imidazo[4,5-b]pyridin-3-yl]-2,3-dihydro-1H-inden-1-yl]-6-cyclopropylpyridine-3-carboxamide] |
| 472 nM | 2250 nM | 83.7 nM | 2330 nM | – | – | – | – | CC(C)(C)c1cn([C@H]2CCc3cc(-n4c(-c5cccnc5N)nc5ccc(-n6cccn6)nc54)ccc32)nn1 [Compound 320] |
| 818 nM | > 10000 nM | 70.9 nM | 4380 nM | – | – | – | – | Nc1ncccc1-c1nc2ccc(-n3nccn3)nc2n1-c1ccc2c(c1)CC[C@@H]2NC1CCN(c2ccccn2)CC1 [Compound 366] |
| > 1000 nM | 3750 nM | 19.6 nM | 321 nM | – | – | – | – | Nc1ncccc1-c1nc2ccc(-n3cccn3)nc2n1-c1ccc2c(c1)CC[C@@H]2NC(=O)c1ccnnc1 [Compound 33, (S)—N-(5-(2-(2-aminopyridin-3-yl)-5-(1H-pyrazol-1-yl)-3H-imidazo[4,5-b]pyridin-3-yl)-2,3-dihydro-1H-inden-1-yl)pyridazine-4-carboxamide] |
| > 856 nM | > 7500 nM | 34.3 nM | 1790 nM | – | – | – | – | Nc1ncccc1-c1nc2ccc(-n3cccn3)nc2n1-c1ccc2c(c1)CC(F)[C@@H]2NC1CCN(C(=O)C2CC2)CC1 (single isomer, unassigned) [Compound 385, 3-{3-[(1R,2*)-1-[(1-cyclopropanecarbonylpiperidin-4-yl)amino]-2-fluoro-2,3-dihydro-1H-inden-5-yl]-5-(pyrazol-1-yl)imidazo[4,5-b]pyridin-2-yl}pyridin-2-amine] |
| 31.9 nM | 1260 nM | 11.2 nM | 67.6 nM | – | – | – | – | Nc1ncccc1-c1nc2ccc(-n3cccn3)nc2n1-c1ccc2c(c1)CC[C@@H]2NC(=O)c1ccc2[nH]cnc2c1 [Compound 22, (S)—N-(5-(2-(2-aminopyridin-3-yl)-5-(1H-pyrazol-1-yl)-3H-imidazo[4,5-b]pyridin-3-yl)-2,3-dihydro-1H-inden-1-yl)-1H-benzo[d]imidazole-5-carboxamide] |
| 51.1 nM | 721 nM | 10.6 nM | 127 nM | – | – | – | – | Cc1cncc(C(=O)N[C@H]2CCc3cc(-n4c(-c5cccnc5N)nc5ccc(-n6cccn6)nc54)ccc32)c1 [Compound 30, (S)—N-(5-(2-(2-aminopyridin-3-yl)-5-(1H-pyrazol-1-yl)-3H-imidazo[4,5-b]pyridin-3-yl)-2,3-dihydro-1H-inden-1-yl)-5-methylnicotinamide] |
| – | – | – | – | – | 16.5 nM | 7.65 nM | 76.8 nM | N#Cc1nc2c(c(N3CCC(N[C@H]4CCc5cc(-n6c(-c7cccnc7N)nc7ccc(-n8cccn8)nc76)ccc54)CC3)n1)CCC2 [Compound 603] |
| – | – | – | – | – | 20.8 nM | 6.51 nM | 38.4 nM | N#Cc1nccc(N2CC(N[C@H]3CCc4cc(-n5c(-c6cccnc6N)nc6ccc(-n7cccn7)nc65)ccc43)C2)n1 [Compound 581] |
| – | – | – | – | – | 11.4 nM | 11.2 nM | 24.4 nM | N#Cc1nccc(C(=O)N2CCC(N[C@H]3CCc4cc(-n5c(-c6cccnc6N)nc6ccc(-n7cccn7)nc65)ccc43)CC2)n1 [Compound 580] |
| – | – | – | – | – | 5.5 nM | 4.32 nM | 11 nM | N#Cc1ncnc(N2CCC(N[C@H]3CCc4cc(-n5c(-c6cccnc6N)nc6ccc(-n7cccn7)nc65)ccc43)CC2)n1 [Compound 592] |

The next lines start with the compound.

| Compound | IC50 [1, 5] | IC50 ([2]; Homo sapiens, LAPC4, 72 h) | IC50 [3, 5] | IC50 [4, 5] | IC50 [2] | IC50 [1, 6] | IC50 [3, 6] | IC50 [4, 6] |
| --- | --- | --- | --- | --- | --- | --- | --- | --- |
| Nc1ncccc1-c1nc2ccc(-n3cccn3)nc2n1-c1ccc2c(c1)CC[C@@H]2NC(=O)c1ccnc2occc12 [Compound 282] | 84.2 nM | 1310 nM | 5.86 nM | 68.9 nM | – | – | – | – |
| Nc1ncccc1-c1nc2ccc(-n3nccn3)nc2n1-c1ccc2c(c1)CC(F)[C@@H]2NC(=O)c1ccc(C(F)F)nc1 (stereo partly drawn) [Compound 349] | 49.6 nM | – | 10.3 nM | 222 nM | 408 nM | – | – | – |
| Nc1ncccc1-c1nc2ccc(-n3cccn3)nc2n1-c1ccc2c(c1)CC[C@@H]2NC(=O)c1cnc(C(F)F)cn1 [Compound 322] | 274 nM | 2550 nM | 63.5 nM | 1330 nM | – | – | – | – |
| Nc1ncccc1-c1nc2ccc(-n3nccn3)nc2n1-c1ccc2c(c1)CC[C@@H]2NC(=O)c1ccnc2occc12 [Compound 379] | 248 nM | 4240 nM | 12.6 nM | 1280 nM | – | – | – | – |
| Nc1ncccc1-c1nc2ccc(-n3cccn3)nc2n1-c1ccc2c(c1)CC[C@@H]2NC(=O)c1ccccc1 [Compound 43, (S)—N-(5-(2-(2-aminopyridin-3-yl)-5-(1H-pyrazol-1-yl)-3H-imidazo[4,5-b]pyridin-3-yl)-2,3-dihydro-1H-inden-1-yl)benzamide] | 44.2 nM | 1160 nM | 14.1 nM | 139 nM | – | – | – | – |
| Nc1ncccc1-c1nc2ccc(-n3cccn3)nc2n1-c1ccc2c(c1)CC[C@@H]2N [Example 2, (S)-3-(3-(1-amino-2,3-dihydro-1H-inden-5-yl)-5-(1H-pyrazol-1-yl)-3H-imidazo[4,5-b]pyridin-2-yl)pyridin-2-amine] | > 1000 nM | 8980 nM | 61.9 nM | 858 nM | – | – | – | – |
| COc1ccc(C(=O)N[C@H]2CCc3cc(-n4c(-c5cccnc5N)nc5ccc(-n6nccn6)nc54)ccc32)cn1 [Compound 371] | 47.8 nM | 1050 nM | 15.4 nM | 1280 nM | – | – | – | – |
| Nc1ncccc1-c1nc2ccc(-n3cccn3)nc2n1-c1ccc2c(c1)CC[C@@H]2NC(=O)Cc1cccnc1 [Compound 48, (S)—N-(5-(2-(2-aminopyridin-3-yl)-5-(1H-pyrazol-1-yl)-3H-imidazo[4,5-b]pyridin-3-yl)-2,3-dihydro-1H-inden-1-yl)-2-(pyridin-3-yl)acetamide] | > 1000 nM | > 10000 nM | 155 nM | 2850 nM | – | – | – | – |
| COc1cc(-c2ccc3nc(-c4cccnc4N)n(-c4ccc5c(c4)CC(F)[C@@H]5NC4CCN(C(=O)C5CC5)CC4)c3n2)ccn1 (stereo partly drawn) [Compound 543] | – | – | – | – | – | 526 nM | 81 nM | 1210 nM |
| COc1cnc(C#N)nc1N1CCC(N[C@H]2CCc3cc(-n4c(-c5cccnc5N)nc5ccc(-n6cccn6)nc54)ccc32)CC1 [Cpd 586] | – | – | – | – | – | 17.3 nM | 6.98 nM | 43 nM |
| N#Cc1nccc(N2CCC(N[C@@H]3c4ccc(-n5c(-c6cccnc6N)nc6ccc(-n7cccn7)nc65)cc4CC3F)CC2)n1 (stereo partly drawn) [Compound 579] | – | – | – | – | – | 9.88 nM | 5.42 nM | 26.6 nM |
